Experimental data from the supplement of paper PMC10307832.

Compound: C1CN(CCC1C(C2=CC3=C(C=C2)OCO3)(C4=CC5=C(C=C4)OCO5)O)C(=O)OC6=CC=C(C=C6)[N+](=O)[O-] [JZL-184] + NC(=O)Nc1cc(-c2cccc(F)c2)sc1C(=O)N[C@H]1CCCNC1 [AZD7762] (partner 0.2 µM)
Assay: relative viability (nuclei count vs DMSO), 5 days (fraction); higher = more cells survive
In short: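 Relative viability is defined as nuclei in treated wells over nuclei in vehicle wells. Duplicate plates were run and medians reported. Lung cancer cell lines in 1536-well plates were dosed by pin tool one day after seeding, with one drug or with a fixed anchor-drug dose plus five library-drug doses (not always all listed) in √10 steps, and nuclei were counted after 5 days.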

201T
relative viability (first compound 0.04 µM): 0.711 | relative viability (first compound 0.4 µM): 0.57 | relative viability (first compound 1.265 µM): 0.586 | relative viability (first compound 4 µM): 0.611

A-427
relative viability (first compound 0.04 µM): 0.807 | relative viability (first compound 0.4 µM): 0.722 | relative viability (first compound 1.265 µM): 0.838 | relative viability (first compound 4 µM): 0.703

ABC-1
relative viability (first compound 1.265 µM): 0.715 | relative viability (first compound 4 µM): 0.968

BEN
relative viability (first compound 0.04 µM): 0.731 | relative viability (first compound 0.4 µM): 0.666 | relative viability (first compound 1.265 µM): 0.752 | relative viability (first compound 4 µM): 0.792

CAL-12T
relative viability (first compound 0.04 µM): 0.712 | relative viability (first compound 0.4 µM): 0.531 | relative viability (first compound 1.265 µM): 0.7 | relative viability (first compound 4 µM): 0.613

ChaGo-K-1
relative viability (first compound 0.04 µM): 0.865 | relative viability (first compound 0.4 µM): 0.761 | relative viability (first compound 1.265 µM): 0.933 | relative viability (first compound 4 µM): 0.832

EKVX
relative viability (first compound 0.04 µM): 0.732 | relative viability (first compound 0.4 µM): 0.688 | relative viability (first compound 1.265 µM): 0.793 | relative viability (first compound 4 µM): 0.645

EMC-BAC-2
relative viability (first compound 0.04 µM): 1.16 | relative viability (first compound 0.4 µM): 1.11 | relative viability (first compound 1.265 µM): 1.14 | relative viability (first compound 4 µM): 1.08

EPLC-272H
relative viability (first compound 0.04 µM): 0.194 | relative viability (first compound 0.4 µM): 0.186 | relative viability (first compound 1.265 µM): 0.211 | relative viability (first compound 4 µM): 0.302

H3255
relative viability (first compound 0.04 µM): 0.945 | relative viability (first compound 0.4 µM): 0.743 | relative viability (first compound 1.265 µM): 0.948 | relative viability (first compound 4 µM): 0.86

HARA
relative viability (first compound 0.04 µM): 0.126 | relative viability (first compound 1.265 µM): 0.43 | relative viability (first compound 4 µM): 0.379

HCC-15
relative viability (first compound 0.04 µM): 1 | relative viability (first compound 0.4 µM): 1.21 | relative viability (first compound 1.265 µM): 1.3 | relative viability (first compound 4 µM): 1.14

HCC-44
relative viability (first compound 0.04 µM): 1.14 | relative viability (first compound 0.4 µM): 1.01 | relative viability (first compound 1.265 µM): 1.03 | relative viability (first compound 4 µM): 0.987

HCC-78
relative viability (first compound 0.04 µM): 0.594 | relative viability (first compound 1.265 µM): 0.688 | relative viability (first compound 4 µM): 0.618

HCC-366
relative viability (first compound 0.04 µM): 0.293 | relative viability (first compound 0.4 µM): 0.209 | relative viability (first compound 1.265 µM): 0.275 | relative viability (first compound 4 µM): 0.257

HCC-827
relative viability (first compound 0.04 µM): 0.147 | relative viability (first compound 0.4 µM): 0.182 | relative viability (first compound 1.265 µM): 0.19 | relative viability (first compound 4 µM): 0.206

HOP-62
relative viability (first compound 0.04 µM): 0.617 | relative viability (first compound 0.4 µM): 0.53 | relative viability (first compound 1.265 µM): 0.754 | relative viability (first compound 4 µM): 0.417

LC-2-ad
relative viability (first compound 0.04 µM): 0.909 | relative viability (first compound 0.4 µM): 0.8 | relative viability (first compound 1.265 µM): 0.853 | relative viability (first compound 4 µM): 0.829

LCLC-97TM1
relative viability (first compound 0.04 µM): 0.281 | relative viability (first compound 0.4 µM): 0.134 | relative viability (first compound 1.265 µM): 0.244 | relative viability (first compound 4 µM): 0.303

LCLC-103H
relative viability (first compound 0.04 µM): 0.791 | relative viability (first compound 0.4 µM): 0.764 | relative viability (first compound 1.265 µM): 0.833 | relative viability (first compound 4 µM): 0.754

LK-2
relative viability (first compound 0.04 µM): 0.438 | relative viability (first compound 0.4 µM): 0.501 | relative viability (first compound 1.265 µM): 0.422 | relative viability (first compound 4 µM): 0.411

LOU-NH91
relative viability (first compound 0.04 µM): 0.785 | relative viability (first compound 0.4 µM): 0.754 | relative viability (first compound 1.265 µM): 0.81 | relative viability (first compound 4 µM): 0.733

LU99A
relative viability (first compound 0.04 µM): 0.364 | relative viability (first compound 0.4 µM): 0.363 | relative viability (first compound 1.265 µM): 0.346 | relative viability (first compound 4 µM): 0.328

LXF-289
relative viability (first compound 0.04 µM): 1.07 | relative viability (first compound 0.4 µM): 1.08 | relative viability (first compound 1.265 µM): 1.1 | relative viability (first compound 4 µM): 1.06

NCI-H23
relative viability (first compound 0.04 µM): 0.203 | relative viability (first compound 1.265 µM): 0.25 | relative viability (first compound 4 µM): 0.283

NCI-H322M
relative viability (first compound 0.04 µM): 0.549 | relative viability (first compound 0.4 µM): 0.523 | relative viability (first compound 1.265 µM): 0.629 | relative viability (first compound 4 µM): 0.521

NCI-H358
relative viability (first compound 0.04 µM): 0.585 | relative viability (first compound 0.4 µM): 0.639 | relative viability (first compound 1.265 µM): 0.569 | relative viability (first compound 4 µM): 0.51

NCI-H441
relative viability (first compound 0.04 µM): 1.44 | relative viability (first compound 0.4 µM): 1.23 | relative viability (first compound 1.265 µM): 1 | relative viability (first compound 4 µM): 1.02

NCI-H460
relative viability (first compound 0.04 µM): 0.639 | relative viability (first compound 0.4 µM): 0.617 | relative viability (first compound 1.265 µM): 0.659 | relative viability (first compound 4 µM): 0.599

NCI-H522
relative viability (first compound 0.04 µM): 0.898 | relative viability (first compound 0.4 µM): 0.706 | relative viability (first compound 1.265 µM): 0.885 | relative viability (first compound 4 µM): 0.781

NCI-H596
relative viability (first compound 0.04 µM): 1.16 | relative viability (first compound 0.4 µM): 0.911 | relative viability (first compound 1.265 µM): 1.11 | relative viability (first compound 4 µM): 1.29

NCI-H647
relative viability (first compound 0.04 µM): 0.45 | relative viability (first compound 0.4 µM): 0.391 | relative viability (first compound 1.265 µM): 0.426 | relative viability (first compound 4 µM): 0.451

NCI-H650
relative viability (first compound 0.04 µM): 0.997 | relative viability (first compound 0.4 µM): 1.1 | relative viability (first compound 1.265 µM): 1.07 | relative viability (first compound 4 µM): 0.988

NCI-H727
relative viability (first compound 0.04 µM): 0.493 | relative viability (first compound 0.4 µM): 0.464 | relative viability (first compound 1.265 µM): 0.621 | relative viability (first compound 4 µM): 0.595

NCI-H838
relative viability (first compound 0.04 µM): 1.01 | relative viability (first compound 0.4 µM): 0.896 | relative viability (first compound 1.265 µM): 0.929 | relative viability (first compound 4 µM): 0.915

NCI-H1355
relative viability (first compound 0.04 µM): 0.922 | relative viability (first compound 0.4 µM): 0.674 | relative viability (first compound 1.265 µM): 0.769 | relative viability (first compound 4 µM): 0.733

NCI-H1395
relative viability (first compound 0.04 µM): 0.429 | relative viability (first compound 0.4 µM): 0.413 | relative viability (first compound 1.265 µM): 0.396 | relative viability (first compound 4 µM): 0.403

NCI-H1437
relative viability (first compound 0.04 µM): 1.19 | relative viability (first compound 0.4 µM): 1.07 | relative viability (first compound 1.265 µM): 1.15 | relative viability (first compound 4 µM): 1.19

NCI-H1651
relative viability (first compound 0.04 µM): 0.427 | relative viability (first compound 0.4 µM): 0.455 | relative viability (first compound 1.265 µM): 0.456 | relative viability (first compound 4 µM): 0.474

NCI-H1666
relative viability (first compound 0.04 µM): 0.915 | relative viability (first compound 0.4 µM): 0.764 | relative viability (first compound 1.265 µM): 0.818 | relative viability (first compound 4 µM): 0.923

NCI-H1703
relative viability (first compound 0.04 µM): 0.106 | relative viability (first compound 0.4 µM): 0.117 | relative viability (first compound 1.265 µM): 0.129 | relative viability (first compound 4 µM): 0.112

NCI-H1734
relative viability (first compound 0.04 µM): 0.571 | relative viability (first compound 0.4 µM): 0.518 | relative viability (first compound 1.265 µM): 0.719 | relative viability (first compound 4 µM): 0.625

NCI-H1755
relative viability (first compound 0.04 µM): 0.397 | relative viability (first compound 0.4 µM): 0.379 | relative viability (first compound 1.265 µM): 0.456 | relative viability (first compound 4 µM): 0.433

NCI-H1792
relative viability (first compound 0.04 µM): 0.747 | relative viability (first compound 0.4 µM): 0.548 | relative viability (first compound 1.265 µM): 0.713 | relative viability (first compound 4 µM): 0.858

NCI-H1793
relative viability (first compound 0.04 µM): 0.359 | relative viability (first compound 0.4 µM): 0.465 | relative viability (first compound 1.265 µM): 0.742 | relative viability (first compound 4 µM): 0.401

NCI-H1915
relative viability (first compound 0.04 µM): 0.76 | relative viability (first compound 0.4 µM): 0.58 | relative viability (first compound 1.265 µM): 0.726 | relative viability (first compound 4 µM): 0.697

NCI-H1944
relative viability (first compound 0.04 µM): 0.556 | relative viability (first compound 0.4 µM): 0.469 | relative viability (first compound 1.265 µM): 0.531 | relative viability (first compound 4 µM): 0.54

NCI-H1975
relative viability (first compound 0.04 µM): 0.723 | relative viability (first compound 0.4 µM): 0.664 | relative viability (first compound 1.265 µM): 0.804 | relative viability (first compound 4 µM): 0.583

NCI-H1993
relative viability (first compound 0.04 µM): 0.704 | relative viability (first compound 0.4 µM): 0.725 | relative viability (first compound 1.265 µM): 0.885 | relative viability (first compound 4 µM): 0.803

NCI-H2085
relative viability (first compound 0.4 µM): 0.886 | relative viability (first compound 1.265 µM): 1.02 | relative viability (first compound 4 µM): 1.01

NCI-H2087
relative viability (first compound 0.04 µM): 1.33 | relative viability (first compound 0.4 µM): 1.2 | relative viability (first compound 1.265 µM): 1.26 | relative viability (first compound 4 µM): 1.34

NCI-H2126
relative viability (first compound 0.04 µM): 1.06 | relative viability (first compound 0.4 µM): 1.01 | relative viability (first compound 1.265 µM): 1.02 | relative viability (first compound 4 µM): 0.996

NCI-H2170
relative viability (first compound 0.04 µM): 0.899 | relative viability (first compound 0.4 µM): 0.794 | relative viability (first compound 1.265 µM): 0.928 | relative viability (first compound 4 µM): 0.761

NCI-H2342
relative viability (first compound 0.04 µM): 0.556 | relative viability (first compound 0.4 µM): 0.39 | relative viability (first compound 1.265 µM): 0.563 | relative viability (first compound 4 µM): 0.6

NCI-H2347
relative viability (first compound 0.4 µM): 0.758 | relative viability (first compound 1.265 µM): 0.82 | relative viability (first compound 4 µM): 0.703

NCI-H2405
relative viability (first compound 0.04 µM): 0.786 | relative viability (first compound 0.4 µM): 0.533 | relative viability (first compound 1.265 µM): 0.797 | relative viability (first compound 4 µM): 0.663

NCI-H3122
relative viability (first compound 0.04 µM): 1.05 | relative viability (first compound 0.4 µM): 0.866 | relative viability (first compound 1.265 µM): 0.99 | relative viability (first compound 4 µM): 1.02

PC-3 [JPC-3]
relative viability (first compound 0.04 µM): 0.773 | relative viability (first compound 0.4 µM): 0.71 | relative viability (first compound 1.265 µM): 0.94 | relative viability (first compound 4 µM): 0.8

PC-14
relative viability (first compound 0.04 µM): 0.391 | relative viability (first compound 0.4 µM): 0.337 | relative viability (first compound 1.265 µM): 0.387 | relative viability (first compound 4 µM): 0.321

RERF-LC-KJ
relative viability (first compound 0.04 µM): 1.11 | relative viability (first compound 0.4 µM): 0.963 | relative viability (first compound 1.265 µM): 0.895 | relative viability (first compound 4 µM): 1

SW 900
relative viability (first compound 0.04 µM): 0.573 | relative viability (first compound 0.4 µM): 0.756 | relative viability (first compound 1.265 µM): 0.627 | relative viability (first compound 4 µM): 0.594
